Source: patent US8791154B2 (Alcon Research, Ltd., priority 2011, dated 2014)
Values after ≈ are worked out from the molar mass of the structure shown.

Assay: Olopatadine solubility in water and in formulations
Format: physicochemical
Settings: for solubility: Concentration (mg/mL) of solubilized olopatadine

solubility (formulation with PVP K29/32, SBE-CD, PEG 400 and HPMC, pH 6.96, aqueous with cosolvent or surfactant or cyclodextrin, 4% PVP K29/32, 1.5% SBE-CD, 4% PEG 400, 0.6% HPMC, final pH 6.96): 7460 µg/mL (≈ 22.1 mM)
solubility (formulation with PVP K29/32, SBE-CD, PEG 400 and HPMC, pH 7.01, aqueous with cosolvent or surfactant or cyclodextrin, 4% PVP K29/32, 2.3% SBE-CD, 4% PEG 400, 0.6% HPMC, final pH 7.01): 8660 µg/mL (≈ 25.7 mM)
solubility (formulation with PVP K29/32, SBE-CD, PEG 400 and HPMC, pH 7.02, aqueous with cosolvent or surfactant or cyclodextrin, 4% PVP K29/32, 2.2% SBE-CD, 4% PEG 400, 0.6% HPMC, final pH 7.02): 8620 µg/mL (≈ 25.5 mM)
solubility (formulation with PVP K29/32, SBE-CD, PEG 400 and HPMC, pH 7.04, aqueous with cosolvent or surfactant or cyclodextrin, 4% PVP K29/32, 2.5% SBE-CD, 4% PEG 400, 0.6% HPMC, final pH 7.04): 9040 µg/mL (≈ 26.8 mM)
solubility (formulation with PVP K29/32, SBE-CD, PEG 400 and HPMC, pH 7.06, aqueous with cosolvent or surfactant or cyclodextrin, 4% PVP K29/32, 2.0% SBE-CD, 4% PEG 400, 0.6% HPMC, final pH 7.06): 8110 µg/mL (≈ 24 mM)
solubility (pH 6.97, aqueous with cosolvent or surfactant or cyclodextrin, 4% PVP K29/32, 1.5% SBE-CD, 4% PEG 400, no HPMC, final pH 6.97): 6130 µg/mL (≈ 18.2 mM)
solubility (pH 6.97, aqueous with cosolvent or surfactant or cyclodextrin, 4% PVP K29/32, 2.0% SBE-CD, 4% PEG 400, no HPMC, final pH 6.97): 6740 µg/mL (≈ 20 mM)
solubility (pH 6.98, aqueous with cosolvent or surfactant or cyclodextrin, 4% PVP K29/32, 2.5% SBE-CD, 4% PEG 400, no HPMC, final pH 6.98): 7340 µg/mL (≈ 21.8 mM)
solubility (pH 7.01, aqueous with cosolvent or surfactant or cyclodextrin, 4% PVP K29/32, 2.2% SBE-CD, 4% PEG 400, no HPMC, final pH 7.01): 6970 µg/mL (≈ 20.7 mM)
solubility (pH 7.02, aqueous with cosolvent or surfactant or cyclodextrin, 4% PVP K29/32, 2.3% SBE-CD, 4% PEG 400, no HPMC, final pH 7.02): 7160 µg/mL (≈ 21.2 mM)
solubility in water (water, pH about 7.0, room temperature, olopatadine by itself): about 0.18 w/v %
Compound: CN(C)CC/C=C1/c2ccccc2COc2ccc(CC(=O)O)cc21 [Olopatadine]
